This is an account of results in patent US7576102B2, “Biaryl substituted nitrogen containing heterocycle inhibitors of LTA4H for treating inflammation” (deCODE genetics ehf, priority 2005, dated 2009).

Broadly, the IC50 is the midpoint of a concentration-inhibition curve.

Assay [1] deals with LTB4 in human whole blood. Nature of the assay: Ex vivo assay testing inhibitory activity in human whole blood after stimulation with calcium ionophore (LTB4 by immunoassay). The class given is cell-based. To be noted: 20 μM ionomycin, read-out: IC50(μM) (hWB). As for the experimental part: (2) Ex vivo Assay Testing Inhibitory Activity in Human Whole Blood After Stimulation with Calcium Ionophor: Human blood was collected in heparin-containing Vacutainer tubes. For each sample, 200 μl of blood were dispensed into a pre-warmed plate and 188 μl of RPMI-1640 medium (Invitrogen) containing 20 μg/ml Indomethacin (Sigma, St. Louis, Mo.) were added. Then 4 μl of a series of compound dilutions (in DMSO) were added, followed by a 15 min incubation at 37° C. with gentle shaking. After that, blood samples were stimulated by adding lonomycin (Calbiochem) to a final concentration of 20 μM. After another incubation at 37° C. for 30 min, samples were centrifuged for 5 min at 1800 g and 4° C. Supernatants were taken and LTB4 concentrations were determined using a commercially available enzyme-linked immunoassay (R&D Systems, Minneapolis, Minn.) according to the manufacturer's instructions. Results obtained for different concentrations of hydrolase inhibitor were then used to fit a dose-response curve and calculate an IC50 value.

For a further assay, the target named is T1, human LTA4 hydrolase (Homo sapiens, UniProt P09960).
T1 construct: A human LTA4 hydrolase full-length cDNA clone (NM_000895) was purchased from OriGene Technologies; made in house; host or cells: Escherichia coli BL21-AI
T1 sequence (P09960 1-611): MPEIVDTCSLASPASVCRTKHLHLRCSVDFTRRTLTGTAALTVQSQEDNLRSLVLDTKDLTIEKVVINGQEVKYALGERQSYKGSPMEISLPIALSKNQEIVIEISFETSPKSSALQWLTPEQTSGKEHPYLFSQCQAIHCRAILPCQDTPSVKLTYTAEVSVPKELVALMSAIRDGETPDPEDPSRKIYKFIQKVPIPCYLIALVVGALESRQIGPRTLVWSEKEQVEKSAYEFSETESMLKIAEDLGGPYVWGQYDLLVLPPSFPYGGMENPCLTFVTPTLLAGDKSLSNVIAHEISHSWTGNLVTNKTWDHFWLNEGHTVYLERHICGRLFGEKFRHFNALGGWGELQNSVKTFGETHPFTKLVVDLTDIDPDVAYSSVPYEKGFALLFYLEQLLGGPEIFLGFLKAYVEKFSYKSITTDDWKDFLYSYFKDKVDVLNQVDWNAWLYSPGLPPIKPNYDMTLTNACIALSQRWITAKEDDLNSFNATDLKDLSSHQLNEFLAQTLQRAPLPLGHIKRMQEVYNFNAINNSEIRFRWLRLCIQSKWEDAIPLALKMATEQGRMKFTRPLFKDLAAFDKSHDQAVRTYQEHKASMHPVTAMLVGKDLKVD
The experiment in a line: In vitro assay testing inhibitory activity against purified recombinant human LTA4 hydrolase. The class given is biochemical. Conditions: 200 nM recombinant enzyme, 2 μM LTA4, LTB4 by LC-MS/MS; read-out: IC50(μM) (hLTA4H). The text has this:
(1) In vitro Assay Testing Inhibitory Activity Against Purified Recombinant Human LTA4 Hydroase:
A human LTA4 hydrolase full-length cDNA clone (NM_000895) was purchased from OriGene Technologies (Rockville, Md.). The gene was amplified by polmerase chain reaction and transferred via pDONR201 into the bacterial expression vector pDEST17 by recombination (both plasmids from Invitrogen, Carlsbad, Calif.). The resulting construct was transformed into Escherichia coli BL21-AI (Invitrogen), and expression was induced by chemical induction with arabinose. The recombinant enzyme was purified by chromatography on a FPLC system (Amersham Biosciences, Uppsala, Sweden) using immobilized metal affinity chromatography (Ni-NTA Superflow, Qiagen, Hilden, Germany) and anion exchange chromatography (MonoQ HR 10/10, Amersham Biosciences).
The compounds of the invention were incubated in a series of dilutions with 200 nM of recombinant enzyme in assay buffer (100 mM Tris-HCl, 100 mM NaCl, 5 mg/ml fatty-acid free BSA, 10% DMSO, pH 8.0) for 10 min at room temperature to allow binding between LTA4 hydrolase and the inhibitors. LTA4 was prepared by alkaline hydrolysis of LTA4 methyl ester (Biomol, Plymouth Meeting, Pa., or Cayman Chemicals, Ann Arbor, Mich.). A solution of 10 μg of the ester was dried under a nitrogen stream and redissolved in 60 μl of a solution of 80% aceton and 20% 0.25 M NaOH. After incubation for 40 min at room temperature the resulting approximately 500 μM tock of LTA4 was kept at −80° C. for no more than a few days prior to use.
Immediately before the assay, LTA4 was diluted to a concentration of 10 μM in assay buffer (without DMSO) and added to the reaction mixture to a final concentration of 2 μM to initiate the enzyme reaction. After incubation for 120 sec at room temperature, the reaction was stopped by adding 2 volumes of chilled quenching buffer, containing acetonitrile with 1% acetic acid and 225 nM LTB4-d4 (Biomol). The samples were then kept at 4° C. over night to complete protein precipitation and centrifuged for 15 min at 1800 g. LTB4 formed was measured by LC-MS/MS using LTB4-d4 as an internal standard and an external LTB4 standard (Biomol) as reference. Briefly, the analyte was separated from LTB4 isomers formed by spontaneous hydrolysis of LTA4 using isocratic elution (modified protocol from Mueller et al. (1996), J. Biol. Chem. 271, 24345-24348) on a HPLC system (Waters, Milford, Mass.) and analyzed on a tandem quadrupole mass spectrometer (Waters). MRM transitions followed on 2 channels were 335.2>195.3 (LTB4) and 339.2>197.3 (LTB4-d4). Based on the amounts of LTB4 found at each inhibitor concentration, a dose-response curve was fitted to the data and an IC50 value was calculated.

The test system of the next assay is colitis symptoms. Conditions: eight weeks of treatment; cited from earlier work.
For assay [2], the system named is ionophore-induced LTB4 production. Conditions: oral administration; cited from earlier work.
Assay [3] has the same test system. To be noted: oral administration; cited from earlier work. This is another data set of the same source.

Structures can show the parent of a compound that is named as a salt.

For the compound `c1ccc(Cc2ccc(O[C@H]3CCNC3)cc2)cc1` [Example 1, (S) 3-(4-Benzyl-phenoxy)-pyrrolidine hydrochloride salt], the half-maximal inhibitory concentration (IC50) (in assay [1]; at human LTA4 hydrolase) was below 5 µM in each case.

For `c1ccc(Cc2ccc(O[C@@H]3CCNC3)cc2)cc1` [Example 2, (R) 3-(4-Benzyl-phenoxy)-pyrrolidine hydrochloride salt], the IC50 (in assay [1]; at human LTA4 hydrolase) was below 5 µM in each case. In the case of `c1ccc(Oc2ccc(OC3CCNCC3)cc2)cc1` [Example 3, 4-(4-Phenoxy-phenoxy)-piperidine hydrochloride salt], the half-maximal inhibitory concentration (IC50) (in assay [1]; at human LTA4 hydrolase) was below 5 µM throughout.

Consider `O=C(O)CCCN1CC[C@@H](Oc2ccc(Cc3ccccc3)cc2)C1` [Example 4, 4-[(R)-3-(4-Benzyl-phenoxy)-pyrrolidin-1-yl]-butyric acid hydrochloride salt], for which the IC50 at human LTA4 hydrolase was below 5 µM.

Take `O=C(O)CCN1CCC(Oc2ccc(Oc3ccccc3)cc2)CC1` [Example 5, 3-[4-(4-Phenoxy-phenoxy)-piperidin-1-yl]-propionic acid]: the IC50 on human LTA4 hydrolase is below 5 µM. For the compound `O=C(O)CCCN1CCC(Oc2ccc(Oc3ccccc3)cc2)CC1` [Example 6, 4-[4-(4-Phenoxy-phenoxy)-piperidin-1-yl]-butyric acid hydrochloride salt], the half-maximal inhibitory concentration (IC50) at human LTA4 hydrolase is below 5 µM.

Turning to `FC(F)(F)c1ccc(Oc2ccc(OC3CCNCC3)cc2)cc1` [Example 7, 4-[4-(4-Trifluoromethyl-phenoxy)-phenoxy]-piperidine hydrochloride salt], the IC50 on human LTA4 hydrolase is below 5 µM. On to `c1ccc(-c2ccc(Oc3ccc(OC4CCNCC4)cc3)cc2)cc1` [Example 8, 4-[4-(Biphenyl-4-yloxy)-phenoxy]-piperidine hydrochloride salt], for which the IC50 (in assay [1]; on human LTA4 hydrolase) was below 5 µM each time. For `FC(F)(F)Oc1ccc(Oc2ccc(OC3CCNCC3)cc2)cc1` [Example 9, 4-[4-(4-Trifluoromethoxy-phenoxy)-phenoxy]-piperidine hydrochloride], the IC50 on human LTA4 hydrolase lay in the range of 5 to 20 µM.

With `Clc1ccc(Oc2ccc(OC3CCNCC3)cc2)cc1` [Example 10, 4-[4-(4-Chloro-phenoxy)-phenoxy]-piperidine hydrochloride], the IC50 at human LTA4 hydrolase was below 5 µM. For `c1ccc(Oc2ccc(O[C@@H]3CCNC3)cc2)cc1` [Example 11, (R)-3-(4-Phenoxy-phenoxy)-pyrrolidine hydrochloride], the IC50 at human LTA4 hydrolase is below 5 µM. On the same count and under the same terms, for `O=C(O)CCCN1CC[C@@H](Oc2ccc(Oc3ccccc3)cc2)C1` [Example 12, 4-[(R)-3-(4-Phenoxy-phenoxy)-pyrrolidin-1-yl]-butyric acid hydrogen chloride] the value was below 5 µM; for `NC(=O)CCCN1CC[C@@H](Oc2ccc(Oc3ccccc3)cc2)C1` [Example 13, 4-[(R)-3-(4-Phenoxy-phenoxy)-pyrrolidin-1-yl]-butyramide], below 5 µM. On to `O=C(O)CCCN1CC[C@@H](Oc2ccc(Oc3ccc(Cl)cc3)cc2)C1` [Example 14, 4-{(R)-3-[4-(4-Chloro-phenoxy)-phenoxy]-pyrrolidin-1-yl}-butyric acid HCl], for which, at human LTA4 hydrolase, the half-maximal inhibitory concentration (IC50) is below 5 µM. Regarding `CN(CCCOc1ccc(Cc2ccccc2)cc1)CCC(=O)O.Cl` [SC57461], in the assay with colitis symptoms, the “colitis symptoms in a primate model” value is reported as “significantly improved colitis symptoms”. In addition, the “inhibition of ionophore-induced LTB4 production in rat peritoneum in vivo” value in assay [2] was “inhibition of ionophore-induced LTB4 production”. For the same compound, the “inhibition of ionophore-induced LTB4 production in mouse blood ex vivo” value in assay [3] was “inhibition of ionophore-induced LTB4 production”.
